The values that follow come from paper PMC10299677, “Fluorinated Benzofuran and Dihydrobenzofuran as Anti-Inflammatory and Potential Anticancer Agents” (International Journal of Molecular Sciences, 2023).

The term IC50 denotes the concentration at which inhibition is half-maximal.

Entries after “also recorded” stand apart in the source; their conditions may differ.

The test system of experiment [1] is HCT116 cells. The experiment is described as follows: TUNEL assay for apoptosis (DNA cleavage) in HCT116. The format is cell-based, human. To be noted: 10, 25 and 50 µM, 72 h. The method, then:
Terminal deoxynucleotidyl transferase dUTP nick-end labeling (TUNEL) assay (Sigma Aldrich 11684795910) was conducted to detect late phase of apoptosis in HCT116 cells. Cells were plated in 6-well plate (200,000 cells per well) for 24 h, and treated with compounds 1 and 2 at 10, 25, and 50 µM for 72 h. Adherent cells and cells in supernatants were collected and fixed with 4% paraformaldehyde for 2 days and then treated with PBS containing 0.1% Triton X-100 at 4 °C for 2 min. Cells were then stained with the TUNEL reagent for 1 h, and positive signals were quantified using the Guava EasyCyte8 Flow Cytometer-Millipore according to the manufacturer’s instructions.
(§1) Densitometric analyses were performed using ImageJ software (NIH, MA, USA). The ratio of the different analyzed bands to β-actin was determined and data are represented as fold change compared to the LPS-treated cells. Percentage of viable cells for proliferation assay was determined as percentage to control (non-treated cells). For TUNEL assay, apoptotic cells were quantified, and results were expressed as percentage to positive cells (cleaved DNA) compared to control (non-treated cells). Statistical analysis was performed using one-way ANOVA, followed by Dunnett’s multiple comparisons test using GraphPad Prism software. Differences were considered significant when p < 0.05.

The subject of experiment [2] is HCT116 cells. Kind of experiment: HCT116 proliferation (WST-1 assay). The format is cell-based, human. To be noted: for inhibition of HCT116 cell proliferation: 50 and 100 µM, 72 h; for IC50: Homo sapiens, HCT-116, 72 h. Here is the method: WST-1 assay was used to determine the effect of these compounds on HCT116 proliferation. Cells were plated in 96-well plate in triplicates (5000 cells per well) for 24 h and treated with 50 and 100 µM of the different compounds for 72 h. […] Culture medium without or with 10% FBS alone was used as basal and maximal proliferation, respectively. Results were expressed as percentage of cells incubated with 10% FBS alone.
as §1

Experiment [3] concerns IL-6. The experiment is described as follows: IL-6 release in LPS-treated macrophages (BMDM). The format is cell-based, C57BL/6J mice. To be noted: for decrease of IL-6 production: 50 µM, LPS 24 h; for IC50: Mus musculus, Macrophage, compounds 30 min prior to 10 ng/mL LPS for 24 h. Here is the method:
(§2) C57BL/6J (10–15 weeks old) male mice were obtained from the animal care facility at the American University of Beirut. All animal procedures were performed following the recommendations of the IACUC (Institutional Animal Care and Use Committee approval 16-09-M379). BMDMs were prepared and characterized as described previously by our group. BMDMs were isolated from C57BL/6J mice by flushing the femur and tibia with RPMI-1640 culture media (Sigma-Aldrich R7388), and cells were collected and centrifuged at 300× g for 5 min. The supernatant was discarded, and the pellet was resuspended in 2 mL red blood lysis 10% (Sigma-Aldrich R7767) medium in PBS and incubated for 5 min at room temperature. After diluting the suspension of cells with 5 mL of RPMI containing 10% FBS and 1% penicillin–streptomycin, cells were centrifuged at 300× g for 5 min, and the cell pellet was resuspended in RPMI media containing 10% FBS supplemented with 15% L929-conditioned medium containing macrophage-colony stimulating factor (M-CSF1) and plated on […]. Cells were allowed to proliferate and differentiate for 5–6 days. Cells were harvested, washed, and allowed to adhere overnight in RPMI containing 10% FBS for treatment. Cells were previously characterized by flow cytometry as macrophages using this method. […] Cells were plated at 0.8 × 10^6 cells per 3.8 cm^2 well [27].
(§3) BMDMs were then treated with different concentrations of the benzofuran and dihydrobenzofuran derivatives for 30 min prior to the addition of 10 ng/mL LPS for 24 h. […] The supernatants were assessed for IL-6, PGE2, CCL2, and nitrite, the stable derivative of NO, as described previously.
(§4) IL-6, CCL2, nitrite (for NO), and PGE2 concentrations from 3–5 independent experiments were expressed as percentage of LPS alone and as mean ± SEM. COX activity was determined as percentage of PGE2 produced from exogenous arachidonic acid. Curve fitting and calculation of IC50 values were performed using GraphPad Prism (version 9.5.1 Software, La Jolla, CA, USA).

Experiment [4] has as its system NO. The experiment is described as follows: NO (nitrite) formation in LPS-treated macrophages (BMDM). To be noted: for effect on NO production: 50 µM, LPS 24 h; for IC50: compounds 30 min prior to 10 ng/mL LPS for 24 h. The format is cell-based, C57BL/6J mice. Here is the method:
as §2, §3, §4

In experiment [5] the target is T1, COX-1 (Homo sapiens, UniProt P23219).
T1 construct: expressed in transfected cells
Kind of experiment: COX-1 activity: PGE2 from exogenous arachidonic acid in HEK-293 cells overexpressing COX-1. Particulars: for effect on COX-1 activity: 10 µM for compounds 1, 7, 9, 50 µM for others, 10 µM arachidonic acid; for IC50: HEK-293 overexpressing COX-1, compounds 30 min prior to 10 µM arachidonic acid. The format is cell-based. The method, then:
Figure 3 Effects of the fluorinated benzofuran and dihydrobenzofuran on COX-1 and COX-2 activities. (A) Illustration for COX-1 activity assay. HEK-293 cells stably overexpressing COX-1 are treated with the nine derivatives of benzofuran at concentrations of only 10 µM for compounds 1, 7, and 9, and 50 µM for the other compounds, 30 min prior to the addition of 10 µM arachidonic acid (AA). […] (B) COX-1 activity. […] Levels of PGE2 were very low in the absence of arachidonic acid (0.04 ± 0.01 ng/mL) and 104.3 ± 16.7 ng/mL for 10 µM AA. (C) Illustration for COX-2 activity determination. Macrophages are treated with 10 µM of aspirin (ASA) for 30 min to block basal COX activity, washed, and treated with 10 ng/mL LPS for 24 h to induce COX-2. Cells are then washed and incubated 30 min with 50 µM of the different compounds prior to the addition of 10 µM of AA. The produced PGE2 mainly reflects COX-2 activity. (D) COX-2 activity. Percentage of LPS-treated cells was calculated, and data are represented as mean ± SEM (n = 4); * p < 0.05 versus AA for COX-1 activity, and versus LPS + ASA + AA for COX-2 activity (one-way ANOVA followed by Dunnett’s test). […] Levels of PGE2 were very low in the absence of arachidonic acid (0.06 ± 0.01 ng/mL) and 71.7 ± 5.7 ng/mL for 10 µM AA.
COX-1 and COX-2 activities were performed as described previously in human embryonic kidney cell line (HEK-293) stably overexpressing COX-1 [19] and in macrophages, respectively. […] For both COX-1 and COX-2 assays, the benzofuran compounds were then added to the cells for 30 min prior to the incubation with 10 µM arachidonic acid for another 30 min. PGE2 was then measured using an enzyme immunoassay, as described previously.
as §4

T1 sequence (P23219 24-599): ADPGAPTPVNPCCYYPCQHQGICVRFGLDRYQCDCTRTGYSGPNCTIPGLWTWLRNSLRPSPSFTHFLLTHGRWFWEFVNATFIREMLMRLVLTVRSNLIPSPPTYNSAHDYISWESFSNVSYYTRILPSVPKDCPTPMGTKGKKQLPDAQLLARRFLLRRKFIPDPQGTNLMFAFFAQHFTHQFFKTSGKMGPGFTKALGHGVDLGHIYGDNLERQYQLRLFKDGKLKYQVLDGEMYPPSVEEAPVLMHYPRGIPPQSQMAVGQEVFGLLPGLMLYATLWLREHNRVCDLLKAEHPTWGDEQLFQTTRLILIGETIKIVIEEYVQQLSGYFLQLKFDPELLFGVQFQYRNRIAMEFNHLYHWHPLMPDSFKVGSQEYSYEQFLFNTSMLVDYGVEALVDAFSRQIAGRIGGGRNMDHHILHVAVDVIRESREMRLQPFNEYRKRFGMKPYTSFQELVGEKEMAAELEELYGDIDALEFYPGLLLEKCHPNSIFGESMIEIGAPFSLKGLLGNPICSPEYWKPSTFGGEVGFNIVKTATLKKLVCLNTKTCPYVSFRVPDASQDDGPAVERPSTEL

For `COC(=O)/C=C1/Oc2ccc(Br)cc2C1(F)F` [Compound 1], the “percentage of apoptotic cells, TUNEL” value in experiment [1] is given as “concentration-dependent increase”. In addition, in experiment [2], the “inhibition of HCT116 cell proliferation” value was “more than 50%” and inhibition was half-maximal at 19.5 µM (IC50).
As to `O=C(O)/C=C1/Oc2ccc(Br)cc2C1(F)F` [Compound 2], in experiment [3], the “decrease of IL-6 production” value was “more than 50%” and the IC50 is 1.23 µM. Further, in experiment [4], the “effect on NO production” value is recorded as “significantly decreased” and the IC50 amounted to 2.42 µM. In experiment [4] (Mus musculus, Macrophage), this compound displayed an IC50 of 2.4 µM. Besides, the “percentage of apoptotic cells, TUNEL” value in experiment [1] is “concentration-dependent increase”. For the same compound, in experiment [2], the “inhibition of HCT116 cell proliferation” value is recorded as “more than 50%” and inhibition was half-maximal at 24.8 µM (IC50).
`O=C(O)/C=C1\Oc2ccc(Br)cc2C1(F)F` [Compound 3]: in experiment [3], the “decrease of IL-6 production” value is reported as “more than 50%” and the IC50 is 5.21 µM. Further, in experiment [4], the “effect on NO production” value is listed as “significantly decreased” and the IC50 was determined as 5.23 µM. Besides, the IC50 in experiment [4] (Mus musculus, Macrophage) worked out at 5.2 µM. Further, in experiment [5], the “effect on COX-1 activity” value is on record as “significantly reduced” and the IC50 came out at 7.9 µM.
For `O=C(O)Cc1oc2ccc(-c3ccccc3)cc2c1F` [Compound 5], the “effect on COX-1 activity” value in experiment [5] was “direct inhibitory effect”.
Regarding `C=C(C)c1ccc2oc(CC(=O)O)c(F)c2c1` [Compound 6], in experiment [5], the “effect on COX-1 activity” value is reported as “significantly reduced; also recorded: direct inhibitory effect” and the IC50 stood at 5 µM.
With `COC(=O)CC1(O)Oc2ccc(Br)cc2C1(F)F` (stereo not drawn) [Compound 8], in experiment [3], the “decrease of IL-6 production” value is listed as “more than 50%” and the IC50 is 9.04 µM. In addition, the “effect on COX-1 activity” value in experiment [5] is given as “without any effect”.
